Target: T1, TLR7 (Homo sapiens, UniProt Q9NYK1)
T1 sequence (Q9NYK1 27-1049): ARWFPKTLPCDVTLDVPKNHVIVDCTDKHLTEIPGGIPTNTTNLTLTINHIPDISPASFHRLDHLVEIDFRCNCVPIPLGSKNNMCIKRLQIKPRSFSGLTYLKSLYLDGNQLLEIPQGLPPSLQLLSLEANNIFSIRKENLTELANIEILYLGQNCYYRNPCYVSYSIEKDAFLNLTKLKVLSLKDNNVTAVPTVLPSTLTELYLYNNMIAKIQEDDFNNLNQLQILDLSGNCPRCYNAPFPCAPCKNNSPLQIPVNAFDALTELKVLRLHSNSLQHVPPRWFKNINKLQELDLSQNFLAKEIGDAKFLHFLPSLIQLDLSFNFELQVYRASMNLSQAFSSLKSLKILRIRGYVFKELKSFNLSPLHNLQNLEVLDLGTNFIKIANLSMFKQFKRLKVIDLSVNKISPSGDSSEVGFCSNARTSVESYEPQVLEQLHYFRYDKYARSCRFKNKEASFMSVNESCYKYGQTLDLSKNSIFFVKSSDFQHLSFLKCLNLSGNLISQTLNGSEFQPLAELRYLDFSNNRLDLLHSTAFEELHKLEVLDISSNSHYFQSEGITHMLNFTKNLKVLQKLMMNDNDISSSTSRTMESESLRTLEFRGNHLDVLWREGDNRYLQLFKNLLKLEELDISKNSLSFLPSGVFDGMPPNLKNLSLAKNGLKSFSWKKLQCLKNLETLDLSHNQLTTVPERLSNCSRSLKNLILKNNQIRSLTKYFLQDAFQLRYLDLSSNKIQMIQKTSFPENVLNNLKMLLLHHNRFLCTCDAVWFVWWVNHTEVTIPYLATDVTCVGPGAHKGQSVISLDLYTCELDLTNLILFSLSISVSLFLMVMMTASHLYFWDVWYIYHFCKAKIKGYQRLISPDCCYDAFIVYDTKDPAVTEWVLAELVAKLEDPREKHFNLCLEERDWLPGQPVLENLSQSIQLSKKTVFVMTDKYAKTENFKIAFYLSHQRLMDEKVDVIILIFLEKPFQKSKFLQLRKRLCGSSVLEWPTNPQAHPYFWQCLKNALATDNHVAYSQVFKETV
Test: TLR7 agonist potency compared with Aldara
Conditions: more potent than Aldara

## Cc1ccc2c(c1)nc(N)c1ncc(CCc3ccc(OCCC(C)C)cc3C)cc12 [compound of formula (II)]
  TLR7 agonist potency relative to Aldara: about 100 times
